Experimental findings from patent US12091410B2, “Heterocyclic compound” (Takeda Pharmaceutical Company Limited, priority 2018, dated 2024) are described below.

This test addresses T1, human orexin type 2 receptor (Homo sapiens, UniProt O43614).
T1 construct: expressed in transfected cells
T1 sequence (O43614 1-444): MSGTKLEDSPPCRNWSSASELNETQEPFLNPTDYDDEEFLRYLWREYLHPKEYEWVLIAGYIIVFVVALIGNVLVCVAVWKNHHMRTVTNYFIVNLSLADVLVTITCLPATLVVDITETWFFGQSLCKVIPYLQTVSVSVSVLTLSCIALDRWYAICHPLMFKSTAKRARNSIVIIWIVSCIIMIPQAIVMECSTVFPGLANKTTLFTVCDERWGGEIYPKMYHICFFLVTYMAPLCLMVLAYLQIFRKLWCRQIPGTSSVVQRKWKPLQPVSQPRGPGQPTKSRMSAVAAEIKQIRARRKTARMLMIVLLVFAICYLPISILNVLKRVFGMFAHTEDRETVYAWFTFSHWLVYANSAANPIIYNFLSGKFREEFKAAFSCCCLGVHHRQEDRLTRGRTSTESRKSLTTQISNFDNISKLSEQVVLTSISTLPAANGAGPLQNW
The experiment in a line: Measurement of orexin type 2 receptor agonist activity (calcium fluorescence, Fluo-4 AM, CHO cells forcibly expressing human OX2 receptor). The test is classed as cell-based. Conditions: test compound 3 μM, DMSO = 0%, orexin A (human) 10 nM = 100%. The source says: To obtain a cell clone stably expressing human orexin type 2 receptor, human orexin type 2 receptor cDNA was inserted into pcDNA3.1(+) plasmid vector (Invitrogen), and a plasmid DNA for expression of human orexin type 2 receptor (pcDNA3.1(+)/hOX2R) was cloned. The plasmid DNA was introduced into CHO-dhfr cell by an electroporation method, and human orexin type 2 receptor expressing clone cells were obtained by limiting dilution method by using G418 drug resistance as a selection marker.
CHO cells forcibly expressing human OX2 receptor were seeded in each well of 384 well black transparent bottom plate (BD Falcon) at 7,500 cells/well, and cultured for one day in a 5% CO2 incubator at 37° C. After removal of the medium in the cell plate, assay buffer A containing a calcium indicator (HBSS (Thermo Fisher Scientific), 20 mM HEPES (Thermo Fisher Scientific), 0.1% BSA (Sigma-Aldrich), 2.5 μg/mL Fluo-4 AM (DOJINDO Chemical), 0.08% Pluronic F127 (DOJINDO Chemical), 1.25 mM probenecid (DOJINDO Chemical)) was added at 30 μL/well. The plate was stood for 30 min in a 5% CO2 incubator at 37° C., and further stood at room temperature for 30 min. A test compound prepared by diluting with assay buffer B (HBSS, 20 mM HEPES, 0.1% BSA) was added at 10 μL/well, and the fluorescence value was measured by FDSSpCELL (Hamamatsu Photonics K. K.) every one sec for 1 min, and thereafter every two sec for 1 min 40 sec. The activity (%) of the test compound was calculated assuming that variation in the fluorescence value when DMSO was added instead of the test compound was 0%, and variation in the fluorescence value when orexin A (human) (PEPTIDE INSTITUTE, INC.) was added at the final concentration of 10 nM was 100%.
On to `CC(C)n1cc2c(n1)[C@@H](Cc1cccc(-c3ccccc3)c1)[C@@H](NS(C)(=O)=O)CC2` (racemic) [Example 16, rac-N-[(6S,7S)-7-[([1,1′-biphenyl]-3-yl)methyl]-2-(propan-2-yl)-4,5,6,7-tetrahydro-2H-indazol-6-yl]methanesulfonamide], for which the “OX2R agonist activity (3 μM, %)” value is reported as 84%.
The same measure for `CC(C)c1cc2n(n1)[C@@H](COC1CCN(c3ncc(F)cn3)CC1)[C@@H](NS(C)(=O)=O)CC2` (relative stereo) [Example 24, rel-N-[(6S,7R)-7-({[1-(5-fluoropyrimidin-2-yl)piperidin-4-yl]oxy}methyl)-2-(propan-2-yl)-4,5,6,7-tetrahydropyrazolo[1,5-a]pyridin-6-yl]methanesulfonamide]: 111%.
With `Cc1cc2n(n1)C(CO[C@H]1CC[C@@H](c3ccccc3)CC1)C(NS(C)(=O)=O)CC2` (mixture of isomers) [Example 1, rac-N-[(6S,7R)-2-methyl-7-({[(1s,4S)-4-phenylcyclohexyl]oxy}methyl)-4,5,6,7-tetrahydropyrazolo[1,5-a]pyridin-6-yl]methanesulfonamide], the “OX2R agonist activity (3 μM, %)” value is 104%.
For `CCc1cc2n(n1)[C@@H](COC1CCN(c3ncc(F)cn3)CC1)[C@@H](NS(C)(=O)=O)CC2` (relative stereo) [Example 33, rel-N-[(6S,7R)-2-ethyl-7-({[1-(5-fluoropyrimidin-2-yl)piperidin-4-yl]oxy}methyl)-4,5,6,7-tetrahydropyrazolo[1,5-a]pyridin-6-yl]methanesulfonamide], the “OX2R agonist activity (3 μM, %)” value was 91%.
Regarding `CCc1nn2c(c1Br)CC[C@H](NS(C)(=O)=O)[C@@H]2COC1CCN(c2ncc(F)cn2)CC1` (racemic) [Example 52, rac-N-[(6S,7R)-3-bromo-2-ethyl-7-({[1-(5-fluoropyrimidin-2-yl)piperidin-4-yl]oxy}methyl)-4,5,6,7-tetrahydropyrazolo[1,5-a]pyridin-6-yl]methanesulfonamide], the “OX2R agonist activity (3 μM, %)” value came to 95%.
Consider `Cc1nnn2c1CC[C@H](NS(C)(=O)=O)[C@@H]2COC1CCN(c2ncc(F)cn2)CC1` (racemic) [Example 10, rac-N-[(6S,7R)-7-({[1-(5-fluoropyrimidin-2-yl)piperidin-4-yl]oxy}methyl)-3-methyl-4,5,6,7-tetrahydro[1,2,3]triazolo[1,5-a]pyridin-6-yl]methanesulfonamide], for which the “OX2R agonist activity (3 μM, %)” value came out at 69%.
For the compound `CS(=O)(=O)N[C@H]1CCc2ccnn2[C@H]1COC1CCN(c2ncc(F)cn2)CC1` (racemic) [Example 9, rac-N-[(6S,7R)-7-({[1-(5-fluoropyrimidin-2-yl)piperidin-4-yl]oxy}methyl)-4,5,6,7-tetrahydropyrazolo[1,5-a]pyridin-6-yl]methanesulfonamide], the “OX2R agonist activity (3 μM, %)” value is 85%.
On to `CCc1cc2n(n1)[C@@H](Cc1cccc(-c3ccccc3)c1)[C@@H](NS(C)(=O)=O)CC2` (racemic) [Example 8, rac-N-{(6S,7S)-7-[([1,1′-biphenyl]-3-yl)methyl]-2-ethyl-4,5,6,7-tetrahydropyrazolo[1,5-a]pyridin-6-yl}methanesulfonamide], for which the “OX2R agonist activity (3 μM, %)” value was determined as 92%.
With `CS(=O)(=O)N[C@H]1CCc2cccnc2[C@H]1Cc1cccc(-c2ccccc2)c1` (racemic) [Example 22, rac-N-{(7S,8S)-8-[([1,1′-biphenyl]-3-yl)methyl]-5,6,7,8-tetrahydroquinolin-7-yl}methanesulfonamide], the “OX2R agonist activity (3 μM, %)” value worked out at 63%.
Under `Cc1cc2n(n1)[C@@H](Cc1cccc(-c3ccccc3)c1)[C@@H](NS(C)(=O)=O)CC2` (racemic) [Example 7, rac-N-{(6S,7S)-7-[([1,1′-biphenyl]-3-yl)methyl]-2-methyl-4,5,6,7-tetrahydropyrazolo[1,5-a]pyridin-6-yl}methanesulfonamide] stands 77%; under `Cc1cn2c(n1)[C@@H](Cc1cccc(-c3cccc(F)c3)c1)[C@@H](NS(C)(=O)=O)CC2` (relative stereo) [Example 57, rel-N-{(7S,8S)-8-[(3′-fluoro[1,1′-biphenyl]-3-yl)methyl]-2-methyl-5,6,7,8-tetrahydroimidazo[1,2-a]pyridin-7-yl}methanesulfonamide], 94%.
For `Cc1cn2c(n1)C(COC1CCN(c3ncc(F)cn3)CC1)C(NC(=O)[C@@H]1CCCO1)CC2` (stereo in doubt) [Example 63, (2S)—N-[(7S*,8S*)-8-({[1-(5-fluoropyrimidin-2-yl)piperidin-4-yl]oxy}methyl)-2-methyl-5,6,7,8-tetrahydroimidazo[1,2-a]pyridin-7-yl]oxolane-2-carboxamide], the “OX2R agonist activity (3 μM, %)” value is recorded as 92%.
Regarding `CC(C)n1cc2c(n1)[C@@H](COC1CCN(c3ncccn3)CC1)[C@@H](NS(C)(=O)=O)CC2` (racemic) [Example 47, rac-N-[(6S,7S)-2-(propan-2-yl)-7-({[1-(pyrimidin-2-yl)piperidin-4-yl]oxy}methyl)-4,5,6,7-tetrahydro-2H-indazol-6-yl]methanesulfonamide], the “OX2R agonist activity (3 μM, %)” value is listed as 98%.
On to `CCc1cc2n(n1)[C@@H](COC1CCN(c3ncc(F)c(C)n3)CC1)[C@@H](NS(C)(=O)=O)CC2` (racemic) [Example 41, rac-N-[(6S,7R)-2-ethyl-7-({[1-(5-fluoro-4-methylpyrimidin-2-yl)piperidin-4-yl]oxy}methyl)-4,5,6,7-tetrahydropyrazolo[1,5-a]pyridin-6-yl]methanesulfonamide], for which the “OX2R agonist activity (3 μM, %)” value is on record as 80%.
In the case of `Cc1cc2n(n1)[C@@H](COC1CCN(c3ncc(F)cn3)CC1)[C@@H](NS(C)(=O)=O)CC2` (racemic) [Example 4, rac-N-[(6S,7R)-7-({[1-(5-fluoropyrimidin-2-yl)piperidin-4-yl]oxy}methyl)-2-methyl-4,5,6,7-tetrahydropyrazolo[1,5-a]pyridin-6-yl]methanesulfonamide], the “OX2R agonist activity (3 μM, %)” value amounted to 98%.
The same measure for `CS(=O)(=O)NC1CCc2ncnn2C1CO[C@H]1CC[C@@H](c2ccccc2)CC1` (mixture of isomers) [Example 6, rac-N-[(5R,6S)-5-({[(1s,4S)-4-phenylcyclohexyl]oxy}methyl)-5,6,7,8-tetrahydro[1,2,4]triazolo[1,5-a]pyridin-6-yl]methanesulfonamide]: 85%.
The same measure for `Cc1ccc2c(n1)[C@@H](Cc1cccc(-c3ccccc3)c1)[C@@H](NS(C)(=O)=O)CC2` (racemic) [Example 62, rac-N-{(7S,8S)-8-[([1,1′-biphenyl]-3-yl)methyl]-2-methyl-5,6,7,8-tetrahydroquinolin-7-yl}methanesulfonamide]: 72%.
With `CC(O)c1nn2c(c1Cl)CCC(NS(C)(=O)=O)C2COC1CCN(c2ncccn2)CC1` (racemic) [Example 50, N-[(6SR,7RS)-3-chloro-2-(1-hydroxyethyl)-7-({[1-(pyrimidin-2-yl)piperidin-4-yl]oxy}methyl)-4,5,6,7-tetrahydropyrazolo[1,5-a]pyridin-6-yl]methanesulfonamide], the “OX2R agonist activity (3 μM, %)” value stood at 92%.
For `Cc1cc2n(n1)[C@@H](COC1CCN(c3ncccn3)CC1)[C@@H](NS(C)(=O)=O)CC2` (racemic) [Example 3, rac-N-[(6S,7R)-2-methyl-7-({[1-(pyrimidin-2-yl)piperidin-4-yl]oxy}methyl)-4,5,6,7-tetrahydropyrazolo[1,5-a]pyridin-6-yl]methanesulfonamide], the “OX2R agonist activity (3 μM, %)” value worked out at 82%.
Turning to `CCc1cc2n(n1)[C@@H](COC1CCN(c3ncccn3)CC1)[C@@H](NS(=O)(=O)CC)CC2` (racemic) [Example 45, rac-N-[(6S,7R)-2-ethyl-7-({[1-(pyrimidin-2-yl)piperidin-4-yl]oxy}methyl)-4,5,6,7-tetrahydropyrazolo[1,5-a]pyridin-6-yl]ethanesulfonamide], the “OX2R agonist activity (3 μM, %)” value is recorded as 101%.
`Cc1nc2c(s1)CC[C@H](NS(C)(=O)=O)[C@@H]2Cc1cccc(-c2ccccc2)c1` (racemic) [Example 17, rac-N-{(4S,5S)-4-[([1,1′-biphenyl]-3-yl)methyl]-2-methyl-4,5,6,7-tetrahydro-1,3-benzothiazol-5-yl}methanesulfonamide]: the “OX2R agonist activity (3 μM, %)” value is 62%.
